The source made the active and inactive calls.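 The calls were made as follows: active = target gene mRNA expression lowered over 20% below the solvent-only control in each of three panels; inactive = the rest.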
Experiments:
Experiment in all cases: IL-17 and IL-23R mRNA reduction by inverse agonists – cell-based, qPCR, endogenous IL-17 and IL-23R, fluorescence, mechanism study for RORC inverse agonist project, late-stage follow-up (AID 624278)
IL-17 = conditions: EL-4 murine T cells, IL-17/IL-23R qPCR, PMA/ionomycin, at 5 µM, stronger effect = lower value
IL-23R = conditions: EL-4 murine T cells, IL-17/IL-23R qPCR, PMA/ionomycin, at 5 µM, stronger effect = lower value
[1] = target: Interleukin-17A (Mus musculus) (UniProt Q62386); conditions: EL-4 murine T cells, IL-17/IL-23R qPCR, PMA/ionomycin; IL-17; Protein
Chain of Interleukin-17A (Mus musculus) (Q62386 whole entry, looked up): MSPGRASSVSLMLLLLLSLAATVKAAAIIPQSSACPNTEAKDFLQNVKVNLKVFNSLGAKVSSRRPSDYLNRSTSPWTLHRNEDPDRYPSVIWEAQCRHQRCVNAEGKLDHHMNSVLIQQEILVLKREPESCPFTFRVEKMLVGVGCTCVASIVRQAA

outcome [1]: active
SMILES: OC(c1ccc(-c2ccc(CN3CCN(Cc4ccncc4)CC3)cc2)c(F)c1)(C(F)(F)F)C(F)(F)F
relative protein level (IL-17; IL-17 protein level): 0.6 | relative gene expression (IL-17; mRNA): 0.1 | relative gene expression (IL-23R): 0.2

Reference: PubChem BioAssay AID624278 (The Scripps Research Institute Molecular Screening Center, 2012)
